# Patent US11622964B2, “Method for destroying cellular mechanical homeostasis and promoting regeneration and repair of tissues and organs, and use thereof” (INSTITUTE OF ZOOLOGY, CHINESE ACADEMY OF SCIENCES, priority 2018, dated 2023)
# “Also recorded” adds a separate entry of the source.
# How the values were obtained:
# [1] = test system: human fibroblasts; experiment: Cellular mechanical homeostasis and cell softening in human fibroblasts (phalloidin staining, immunofluorescence, quantitative PCR); format: cell-based
# Description: FIG. 1A is a schematic diagram of laser confocal scanning.
# [2] = test system: bile duct ligation-induced fibrosis; experiment: Bile duct ligation-induced hepatic fibrosis model; format: in vivo, mice
# Procedure: The ICR, C57Bl/6 mice used in the experiment are purchased from SPF (Beijing) Biotechnology Co., Ltd.; elbow tweezers, finger tweezers, scissors, needle holders, suture needles, suture threads are purchased from Asone Trading Co., Ltd.; antibiotics are purchased from Gibco (15240-062). 8 week-old female mice are used, and they are fasted for 24 hours before the experiment. The mice are anesthetized with 5% chloral hydrate, and intraperitoneally injected with 8 ml/kg. The mice are fixed after anesthesia, and an incision is made in the abdomen to expose the organs. The duodenum of the stomach end is found and gently pulled to find the bile duct, carefully peeling off the bile duct with tweezers, ligating the bile duct with suture thread, then adding antibiotics, and suturing to close the abdominal cavity. The mice are fasted for 12 hours after surgery. 14-20 days after surgery, the skin of the mice is observed to be yellow-green, and drug is administered to mice for treatment. The mice in the modeling group are evenly divided into two groups, and the mice of experimental group are intraperitoneally injected with (−)-blebbistatin. As for the administration method, (−)-blebbistatin is dissolved in DMSO; sequentially adding 2-5% DMSO (final concentration, volume ratio)+30% PEG400 (final concentration, volume ratio)+2% Tween 80 (final concentration, volume ratio), the mice of the control group are injected with a solvent without the small molecule but containing an equal amount of DMSO (denoted as “Con”).
# [3] = test system: bleomycin-induced skin sclerosis; experiment: Bleomycin-induced scleroderma model; format: in vivo, mice; settings: 1-3 mg/kg/day intraperitoneal
# Description: Scleroderma is a connective tissue disease characterized by localized or diffuse fibrosis of the skin and internal organs, thereby hardening and shrinking. The disease may cause multisystem injury, its exact cause and pathogenesis are still unclear, and there is no effective treatment means. […] One week after injection of bleomycin, the skin at the injection site on the back of mice begins to thicken and harden, and has poor elasticity; there is no change in hair growth until the end of the injection; meanwhile, induration and incrustation occurs at the injection site, accompanying with superficial ulcers. As for the shaved injection area on the back of the mice in the saline control group, the hair grows continuously, and no significant skin hardening and thickening phenomenon is observed, as shown in FIG. 7B. Treatment group (Bleb): intraperitoneal administration of myosin inhibitor (−)-blebbistatin (1-3 mg/kg/day, dissolved in 2-5% DMSO+30% PEG400+2% Tween 80+ddH2O); control group (con): without (−)-blebbistatin but containing the same amount of DMSO. […] Further experiments confirm that the myosin inhibitor (−)-blebbistatin promotes melanin accumulation in the induration zone and the growth of new hair, as shown in FIG. 7C.
# [4] = test system: bleomycin-induced pulmonary fibrosis; experiment: Bleomycin-induced pulmonary fibrosis model; format: in vivo, mice; settings: 1-3 mg/kg/day
# Procedure: In the invention, bleomycin (BLM) is instilled into pulmonary tracheal of ICR or C57Bl/6 mice to successfully construct a mouse model of pulmonary fibrosis, and the mice are treated by intraperitoneal administration of myosin inhibitor (−)-blebbistatin. […] The detailed processes of injecting bleomycin are as follows:
# (1) Dilution of bleomycin: 50 mg/ml stock solution is diluted 25 times to obtain a final concentration of 2 mg/ml.
# (2) The mice are anesthetized by intraperitoneal injection of 0.5% sodium pentobarbital (100 μl/10 g b.w.).
# (3) The neck skin is disinfected by 75% alcohol, cutting the neck skin and bluntly separating the mucosa and muscles of the trachea, exposing the trachea, and taking care not to damage the thyroid.
# (4) 50 μl (20 g body weight) of bleomycin is injected into the interval of tracheal cartilage by an insulin syringe at a dose of 5 mg/kg. After the needle is pulled out, putting the console upright, rotating left and right for 1 min, and then the skin is sutured. The mice eat food and drink water freely after spontaneously awakening.
# The mice are identified and divided into two groups: DMSO (indicated as “Con” in FIG. 8) and (−)-blebbistatin (indicated as “Bleb” in FIG. 8, 1-3 mg/kg/day) are respectively administrated by intraperitoneal injection, wherein they are respectively dissolved in 2-5% DMSO+30% PEG400+2% Tween80+ddH2O. The survival status of the mice is recorded with intraperitoneal injection/day, tail vein injection/3 days. The result is shown in FIG. 8B, all the mice in the control group died on day 8 of treatment, while the mice in the Bleb treatment group have a survival rate of 40% on day 15 of treatment.
# (6) Small animal CT scanning is performed on D8 (modeling on D14), the samples are taken and fixed after heart perfusion, slicing the samples and performing H&E and Sirius red staining. The result is shown in FIG. 8D, (−)-blebbistatin inhibits tissue damage and fibrosis during bleomycin-induced lung damage.
# [5] = test system: human fibroblasts; experiment: Transcriptome sequencing of treated human fibroblasts; format: cell-based
compound,measurement,setting,value
Cc1ccc2c(c1)C(=O)[C@]1(O)CCN(c3ccccc3)C1=N2 [(−)-blebbistatin],EZH2 protein level and localization,[1],down-regulated and it is localized at the cytoplasm
same,nucleus morphology,"[1]; 20 μM, vs DMSO control",irregular folds
same,stress fibers in the cell (phalloidin staining),"[1]; 20 μM, vs DMSO control",disintegrated
same,cells with obvious nuclear localization of stress effect protein YAP1/TAZ,[1]; after drug treatment,35%
same,proteins related to regulation of cellular mechanical hardness (quantitative PCR),[1]; after small molecule treatment,significantly down-regulated
same,modification of H3K27 trimethylation (immunofluorescence),[1]; day 4,significantly reduced
same,active transcriptional region labeled with fluorouridine,[1]; three biological replicates,also distributed near the periphery of the nucleus
same,heterochromatin HP1 proteins,[1]; vs DMSO control,the control group is significantly stronger than the experimental group
same,accumulation of collagenous fibers (Sirius Red),[2]; after 15 days of treatment,significantly inhibited
same,proliferation of myofibroblasts (α-SMA staining),[2]; after 15 days of treatment,significantly inhibited
same,accumulation of collagenous fibers (Sirius Red),[2]; after 30 days of treatment,significantly inhibits
same,hepatocyte proliferation (Ki-67 staining),[2]; during the bile duct ligation process,promotes
same,state of the mice,[2]; intraperitoneal injection,more active and energetic
same,FGF9 expression (immunofluorescence),[3],more FGF9 is expressed
same,KRT17 positive cells relative to KRT18 positive cells (immunostaining),[3],much more
same,NeuN expression in the induration zone (neural fate),[3],expressed in some cells
same,accumulation of mesenchymal fibers (H&E and Masson staining),[3],significantly reduces
same,epidermal and dermal thickness,[3],significantly reduces
same,hair follicle cell proliferation (Ki-67 staining),[3],promotes
same,hair follicle regeneration (KRT17/PCNA co-immunostaining),[3],promotes hair follicle regeneration
same,melanin accumulation in the induration zone and growth of new hair,[3],promotes
same,number of hair follicles or glands,[3],promotes
same,degree of induration and incrustation,[3]; after 3 weeks of treatment,significantly reduced
same,decrease in lung volume (small animal CT),[4],inhibits the decrease
same,lung tissue damage (H&E staining),[4],inhibits
same,"pulmonary fibrosis (Sirius red staining, statistical analysis)",[4],inhibiting pulmonary fibrosis; also recorded: significantly improves; also recorded: inhibits
same,survival of mice with pulmonary fibrosis (in words),[4],significantly promoting survival
same,decrease in lung volume (small animal CT),[4]; listed as Bleb,significantly inhibits
same,lung tissue damage (H&E staining),[4]; listed as Bleb,relieves lung damage
same,"pulmonary fibrosis (Sirius red staining, statistical analysis)",[4]; listed as Bleb,relieves pulmonary fibrosis
same,survival of mice with pulmonary fibrosis (in words),[4]; listed as Bleb,significantly increases
same,survival rate,"[4]; day 15 of treatment, 10 mice per group",40%
same,"DNA replication, homologous recombination, mismatch repair, nucleotide excision repair and base excision repair related genes","[5]; 5-50 μM, after 6 hours",significantly upregulated
same,important genes involved in homologous recombination,"[5]; 5-50 μM, after 6 hours",significantly upregulated
same,genes related to initiation of regeneration (such as FST) and neurogenesis-related genes,[5]; after induction for 22 days under the neural induction system,significantly upregulated
same,mRNA expression of general stress response genes,[5]; day 1 and day 2,begins to downregulate
same,"genes related to general stress response (HSP70 family, HSP90)",[5]; early 6 hours of the induction,upregulated
